Data taken from patent US6534070B1, “Composition with azelaic acid” (Schering Aktiengesellschaft, priority 1997, dated 2003).

Format: in vitro ADME, hairless mice (MF1 hr/hr Ola/Hsd)
Details: MF1 hr/hr Ola/Hsd (hairless), mouse, 24 h
From the text: The percutaneous resorption of azelaic acid was examined from hydrogel formulations according to the invention in comparison to Skinoren^(R) cream. The purpose of the study was to describe the bioavailability of azelaic acid in the skin, the penetration of azelaic acid through the skin and the dermal metabolism of azelaic acid. In this respect, various preparations that contain ^14C-labeled azelaic acid were applied in the in vitro model of the FRANZ diffusion chamber on the intact complete skin of hairless mice (MF1 hr/hr Ola/Hsd; supplier: Winkelmann, Germany). An amount of 10 to 15 mg of the following compositions was applied to a skin area of 2 cm^2:
The time behavior of the ^14C-azelaic acid was measured in the acceptor medium (Hepes Hanks Balanced Salt Solution: HHBSS), which flows along under the skin, at two-hour intervals over a period of 24 hours. In addition, at the end of each experiment, the radioactivity on the skin surface, in the stratum corneum and in the remaining skin was determined. […]
The ^14C-azelaic acid found in the skin at the end of the experiment was metabolized only to a proportion of 3 to 11%. Therefore, the data on the radioactivity in the skin can virtually be equated to the concentration of unchanged azelaic acid.

O=C(O)CCCCCCCC(=O)O [^14C-azelaic acid, azelaic acid]
proportion of 14C-azelaic acid found in the skin that was metabolized: 3 to 11%
